Columns and labels:
Human recombinant MMP-14 = molecular target: T1, Human recombinant MMP-14 (Homo sapiens, UniProt P50281); assay: In vitro MMP inhibition analysis (fluorogenic peptide substrate), MMP-14; format: biochemical; settings: human recombinant catalytic domain; 4 μM substrate (A); apparent Ki without substrate correction
T1 construct: The catalytic domain enzyme was expressed in E. Coli inclusion bodies; made in house
Method: (§1) Several compounds and salts were analyzed in an in vitro assay to determine their ability to inhibit the MMP cleavage of peptide substrates. Inhibition constant (Ki) were calculated from the assayed compound-MMP interactions.
(§2) Human recombinant MMP-1, MMP-2, MMP-9, MMP-13, and MMP-14 were used in this assay. All enzymes were prepared in Assignee's laboratories following usual laboratory procedures. Protocols for the preparation and use of these enzymes are available in the scientific literature. See, e.g., Enzyme Nomenclature (Academic Press, San Diego, Calif., 1992) (and the citations therein). See also, Freije et al., J. Biol. Chem., 269(24), 16766-16773 (1994).
The MMP-14 full length cDNA was provided by Dr. Gregory Goldberg of Washington University (St. Louis, Mo.). The catalytic domain enzyme was expressed in E. Coli inclusion bodies, solubilized in urea, purified on a preparative […] reverse phase HPLC column, and then refolded in the presence of zinc acetate and purified for use.
(§3) All MMPs were activated using 4-aminophenylmercuric acetate (“APMA”, Sigma Chemical, St. Louis, Mo.) or trypsin. MMP-9 also was activated using human recombinant MMP-3 (purified in Assignee's laboratory following standard cloning and purification techniques).
(§4) The following fluorogenic, methoxycoumarin-containing polypeptide substrate (A) was used in the MMP inhibition assays:
(§5) MCA-ArgProLeuGlyLeuDpaAlaArgGluArgNH2 (A)
(§6) “MCA” is 7-methoxycoumarin-4-yl acetyl. Substrate (A) was prepared Assignee's laboratory. In the absence of MMP inhibitory activity, the substrate is cleaved at the Gly-Leu peptide bond. This cleavage separates the highly fluorogenic peptide from the 2,4-dinitrophenyl quencher, thus resulting in increase of fluorescent intensity.
(§7) The stock solutions of the assayed compounds and salts were prepared in 1% dimethyl sulfoxide (DMSO). These stock solutions were diluted in Buffer A (100 mM Tris-HCl, 100 mM NaCl, 10 mM CaCl2, 0.05% polyoxyethylene 23 lauryl ether, pH 7.5) to obtain solutions with different compound concentrations, i.e., assay solutions with different concentrations of the assayed MMP inhibitory compound. The experiment controls contained the same amount of Buffer A/DMSO as the assayed sample, but contained none of the tested compound or salt.
(§8) The assays from which the Ki determinations were made were performed as follows. The assayed compound samples were incubated in separate wells of untreated white polystyrene plates (Nunc Nalgene International, Rochester, N.Y.), and analyzed on a Tecan SpectraFlour Plus plate reader. The excitation wavelength was 330 nm, and the emission wavelength -420 nm. All samples (assayed compounds and controls) were incubated in separate plate wells at room temperature for 1 hr in the presence of 4 μM of MMP substrate (A). In the absence of MMP inhibitory activity, substrate (A) was cleaved at the Gly-Leu bond resulting in an increase of relative fluorescence. Inhibition was observed as a reduced rate of this increase in relative fluorescence. […] This protocol is a modification of method by Knight et al., FEBS Lett., 296(3), 263-266 (1992). Apparent inhibitory constants were determined by non-linear regression of reaction velocity as a function of inhibitor and enzyme concentration using Morrison's equation, as described by Kuzmic, P., et al., Anal. Biochem., 286(1):45-50 (2000). Modifications were made in the non-linear regression method to allow a common control reaction rate and effective enzyme concentration to be shared between all dose-response relationships on a given assay plate. Since the substrate concentration was chosen to be at or below the Km, the apparent Ki's from this analysis were reported as Ki's without correction for the influence of substrate.
The above protocols were used to determine MMP inhibition Ki constants for the compounds in Examples 1, 2, and 4-42 above. All Ki values in Table 3 are given in nM units.

Human recombinant MMP-13 = molecular target: T2, Human recombinant MMP-13 (Homo sapiens, UniProt P45452); assay: In vitro MMP inhibition analysis (fluorogenic peptide substrate), MMP-13; format: biochemical; settings: human recombinant enzyme; 4 μM substrate (A); apparent Ki without substrate correction
T2 construct: made in house; host or cells: baculovirus / insect cells
Method: as §1, §2
The MMP-13 was obtained as a proenzyme from a full-length cDNA clone using baculovirus, as described by V. A. Luckow, “Insect Cell Expression Technology,” Protein Engineering: Principles and Practice, pp. 183-218 (edited by J. L. Cleland et al., Wiley-Liss, Inc., 1996). The expressed proenzyme was first purified over a heparin agarose column, and then over a chelating zinc chloride column. The proenzyme was then activated by APMA for use in the assay. […] See also, O'Reilly et al, Baculovirus Expression Vectors: A Laboratory Manual (W. H. Freeman and Co., New York, N.Y., 1992). See also, King et al., The Baculovirus Expression System: A Laboratory Guide (Chapman & Hall, London, England, 1992).
as §3, §4, §5, §6, §7
as §8, with “Modifications were made in the non-linear regression method to allow a common control reaction rate and effective enzyme concentration to be shared between all dose-response relationships on a given assay plate.” left out
All Ki values in Table 3 are given in nM units.

| SMILES | Ki (Human recombinant MMP-14) | Ki (Human recombinant MMP-13) |
| --- | --- | --- |
| O=C(NO)C1(S(=O)(=O)c2ccc(-c3ccc(CCC(F)(F)C(F)(F)F)cc3)nc2)CCOCC1 [Example 69] | 5070 nM | 0.531 nM |
| CCCCc1ccc(C(=O)C2CCN(c3ccc(S(=O)(=O)C4(C(=O)NO)CCOCC4)cn3)CC2)s1 [Example 70] | > 10000 nM | 1.8 nM |
| CC(C)CN(C)C(=O)Cc1ccc(-c2ccc(S(=O)(=O)C3(C(=O)NO)CCOCC3)cn2)cc1 [Example 71] | > 10000 nM | 1.93 nM |
| O=C(Cc1ccc(-c2ccc(S(=O)(=O)C3(C(=O)NO)CCOCC3)cn2)cc1)N1CCCCC1 [Example 72] | > 10000 nM | 1.59 nM |
| CCCCNC(=O)Cc1ccc(-c2ccc(S(=O)(=O)C3(C(=O)NO)CCOCC3)cn2)cc1 [Example 73] | > 10000 nM | 18.8 nM |
| CCCCN(C)C(=O)Cc1ccc(-c2ccc(S(=O)(=O)C3(C(=O)NO)CCOCC3)cn2)cc1 [Example 74] | > 10000 nM | 1.91 nM |
| CN(C(=O)Cc1ccc(-c2ccc(S(=O)(=O)C3(C(=O)NO)CCOCC3)cn2)cc1)c1ccc(OC(F)(F)F)cc1 [Example 75] | > 10000 nM | 140 nM |
| CCCCNC(=O)c1ccc(-c2ccc(S(=O)(=O)C3(C(=O)NO)CCOCC3)cn2)cc1 [Example 76] | > 10000 nM | 5.59 nM |
| CN(C(=O)c1ccc(-c2ccc(S(=O)(=O)C3(C(=O)NO)CCOCC3)cn2)cc1)c1ccccc1 [Example 78] | > 10000 nM | 447 nM |
| CCN(CC)C(=O)c1ccc(-c2ccc(S(=O)(=O)C3(C(=O)NO)CCOCC3)cn2)cc1 [Example 79] | > 10000 nM | 607 nM |
| CN(C(=O)c1ccc(-c2ccc(S(=O)(=O)C3(C(=O)NO)CCOCC3)cn2)cc1)c1ccc(OC(F)(F)F)cc1 [Example 81] | > 10000 nM | 264 nM |
| CC(C)CN(C)C(=O)c1ccc(-c2ccc(S(=O)(=O)C3(C(=O)NO)CCOCC3)cn2)cc1 [Example 82] | > 10000 nM | 229 nM |
| O=C(NO)C1(S(=O)(=O)c2ccc3c(c2)sc2nc(-c4ccccc4)cn23)CCOCC1 [Example 83] | 3150 nM | 577 nM |
| O=C(NO)C1(S(=O)(=O)c2ccc(-c3ccc(OC(F)(F)F)cc3)nc2)CCOCC1 [Example 84] | 671 nM | 0.79 nM |

— patent US20040142979A1, “Heteroarylsulfonylmethyl hydroxamic acids and amides and their use as protease inhibitors” (priority 2002, published 2004)
